Results from PMC8456950, “Structure‐Guided Design of G‐Protein‐Coupled Receptor Polypharmacology” (Angewandte Chemie (International Ed. in English), 2021).

Tests used:
[1] = molecular target: T1, H1R (Homo sapiens, UniProt P35367); test: H1R competition binding ([3H]pyrilamine); settings: for H1R % displacement at 10 µM: 10 µM compound, n=2
T1 construct: expressed in transfected cells; host or cells: CHO-H1R cell line (membranes)
Protocol: H1R competition binding experiments were carried out in polypropylene 96-well plates. Each well contained 50 µg of membranes from a CHO-H1R cell line (protein concentration=3860 µg/ml), 4 nM [3H]pyrilamine (20. 1 Ci/mmol, 1 mCi/ml, Perkin Elmer NET594250UC ), and the compound studied. Non-specific binding was determined in the presence of 10 µM triprolidine (T6764, Sigma Aldrich). The reaction mixture (250 µl/well) was incubated at 27 °C for 60 min, after which 200 µL was transferred to GF/B 96 -well plates (Millipore, Madrid, Spain) pretreated with 0. 1% Tween 20 and assay b uffer (Na+ / K+ phosphate buffer pH=7. 4).
The samples were then filtered and washed fou r times with 250 µl wash buffer (Na+/K+ phosphate buffer, pH=7.4), after which 30 µL Universol (MP Biomedicals, Spain) was added […]
and measurements were performed in a microplate beta scintillation counter (Microbeta Trilux, PerkinElmer, Madrid, Spain). Two independent experiments were carried out to calculate Ki values (n=2).
Data were adjusted to non-linear fitting by using Prism V2.1 (GraphPad Inc, Chicago, USA) and Ki values were calculated by using the Cheng-Prusoff equation25. […]
(§1) KB=I C50/(1+([NECA]/EC50 NECA)). […]

[2] = molecular target: T2, Human A1AR (Homo sapiens, UniProt P30542); test: A1AR competition binding ([3H]-DPCPX); settings: for A1AR % displacement at 10 µM: 10 µM compound, n=2
T2 construct: expressed in transfected cells; host or cells: CHO-A1AR cell line (membranes)
T2 sequence (P30542 1-326): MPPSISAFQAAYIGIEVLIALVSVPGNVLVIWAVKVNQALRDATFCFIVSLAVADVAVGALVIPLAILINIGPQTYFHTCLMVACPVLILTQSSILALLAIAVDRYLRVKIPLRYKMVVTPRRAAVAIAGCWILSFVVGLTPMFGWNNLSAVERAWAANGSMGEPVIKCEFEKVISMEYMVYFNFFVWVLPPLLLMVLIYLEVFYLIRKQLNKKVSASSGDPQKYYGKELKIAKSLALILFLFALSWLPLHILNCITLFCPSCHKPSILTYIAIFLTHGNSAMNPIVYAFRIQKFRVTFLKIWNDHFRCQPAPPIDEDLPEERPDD
Protocol: Human A1AR competition binding experiments were carried out in multiscreen GF/C 96 -well plates (Millipore, Madrid, Spain) pretreated with assay buffer ( 20 mM Hepes, 100 mM NaCl, 10 mM MgCl2, 2 U/ml adeno sine deamina se, pH=7.4). Each well contained 5 µg of membranes from a CHO-A1AR cell line, 1 nM [3H]-DPCPX (137 Ci/mmol, 1 mCi/Ml, Perkin Elmer NET974001MC), and the compound studied. Non-specific binding was determined in the presence of R-PIA 10 µM (Sigma P4532). The reaction mixture (200 µl/well) was incubated at 25°C for 60 min. The samples were then filtered and washed four times with 250 µl wash buffer (20 mM Hepes, 100 mM NaCl, 10 mM MgCl2, pH=7.4) before measuring in a microplate beta scintillati on counter (Microbeta Trilux, PerkinElmer, Madrid, Spain). Two independent experiments were carried out to calculate K i values (n=2). […]

[3] = molecular target: Human A2AAR (Homo sapiens, UniProt P29274); test: A2AAR functional assay, inhibition of NECA-elicited cAMP production in CHO-A2A cells; type: cell-based; design: expressed in transfected cells; settings: mean±SEM n=3
Protocol: Functional assays. For the human A2AAR, functional experiments measuring cAMP production were carried out in CHO-A2A cell line. The day before the assay, the cells were seeded on a 96-well culture plate (Falcon 353072). The cells were washed with wash buffer (Dulbecco’s modified eagle’s medium nutrient mixture F-12 ham (Sigma D8062), 25 mM Hepes; pH=7.4). Wash buffer was then replaced by incubation buffer (Dulbecco’s modified eagle’s medium nutrient mixture F-12 ham (Sigma D8062), 25 mM Hepes, 20 µM Rolipram, pH=7.4). The studied compounds wer e added and incubated at 37 °C for 15 min. After incubation, NECA (Sigma E2387) was added in several concentrations and incubated at 37 °C for 15 min. After incubation, the amount of cAMP was determined using the cAMP Biotrak Enzymeimmunoassay (EIA) System Kit (GE Healthcare RPN225). Data were adjusted to non-linear fitting by using Prism V2.1 (GraphPad Inc, Chicago USA). K B values were calculated from the IC50 values obtained for each compound by using the formula:
as §1

[4] = Caco-2 cell permeability; type: in vitro ADME; settings: human, Caco-2 monolayer
Protocol: forskolin (Sigma 17018) was added and incubated for 5 min at 37 °C with gentle stirring (150 rpm). Reagents (#CISBIO 62AM4PEC) were added and, after incubation for 60 min at rt with gentle stirring (90 rpm) and protected from light, homogeneous time resolved fluorescence (HTRF, λEx: 320 nm; λEm: 620-665 nm) from each well was measured using a Tecan Infinite M1000 Pro. Data were normalized to the maximum effect of dopamine. EC50 and Ema x values were obtained after fitting the d ata to a four -parameter logistic equatio n using Prism V2. 1 (Graph Pad Inc, Chicago, USA) .
Cell permeability. The Caco-2 cell permeability of compound 30 was determined by the Uppsala university optimization and pharmaceutical profiling platform (UDOPP) as described previously26. Briefly, Caco-2 cell monolayers (passage 94-105) were grown on a permeable filter support and used on day 21 after seeding. Prior to the experiment a 10 µM solution of 30 was prepared by dilution of a 10 mM stock solution in DMSO with Hank’ s balanced salt solution (HBSS; 7.4) and warmed to 37 ° C. The Caco-2 filters were washed with pre-warmed HBSS prior to the experiment, and the solution of 30 was thereafter applied on the apical or basolateral side of the monolayer. Permeability was determined at 37 ° C and at pH 7.4 in both the apical and basolateral chamber, with a stirring rate of 500 rpm. […]

T1 sequence (P35367 whole entry, species assumed): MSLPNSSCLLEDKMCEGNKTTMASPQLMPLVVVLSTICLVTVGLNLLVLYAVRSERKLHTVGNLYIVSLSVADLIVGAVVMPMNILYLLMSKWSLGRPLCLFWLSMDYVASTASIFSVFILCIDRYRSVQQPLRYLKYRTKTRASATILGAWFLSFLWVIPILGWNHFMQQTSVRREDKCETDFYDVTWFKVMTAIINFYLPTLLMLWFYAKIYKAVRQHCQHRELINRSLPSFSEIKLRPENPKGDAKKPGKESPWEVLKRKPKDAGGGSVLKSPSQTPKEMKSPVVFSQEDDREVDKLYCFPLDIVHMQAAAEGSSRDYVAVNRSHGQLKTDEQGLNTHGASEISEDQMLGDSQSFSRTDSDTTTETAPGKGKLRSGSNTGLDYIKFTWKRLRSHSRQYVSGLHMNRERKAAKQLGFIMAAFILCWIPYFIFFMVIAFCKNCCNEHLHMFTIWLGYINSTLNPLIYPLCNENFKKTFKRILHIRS
Sequence of Human A2AAR (P29274 whole entry): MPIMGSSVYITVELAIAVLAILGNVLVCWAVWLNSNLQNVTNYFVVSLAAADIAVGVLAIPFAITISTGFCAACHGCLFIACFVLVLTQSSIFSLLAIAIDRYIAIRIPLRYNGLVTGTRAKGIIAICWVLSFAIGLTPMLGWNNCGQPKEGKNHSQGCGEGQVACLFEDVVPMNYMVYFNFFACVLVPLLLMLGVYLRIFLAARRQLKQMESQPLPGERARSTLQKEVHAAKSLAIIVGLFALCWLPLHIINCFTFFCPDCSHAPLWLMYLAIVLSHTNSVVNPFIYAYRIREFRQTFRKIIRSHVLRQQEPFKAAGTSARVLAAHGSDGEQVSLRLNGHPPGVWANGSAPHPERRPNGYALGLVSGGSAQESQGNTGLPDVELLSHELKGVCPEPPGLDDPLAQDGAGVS

SMILES	H1R % displacement at 10 µM [1]	A1AR % displacement at 10 µM [2]	Kb [3]	Papp A→B at 60 min, 10 µM ([4]; 10 µM, pH 7.4, 37 °C, apical to basolateral)	efflux ratio at 60 min, 10 µM ([4]; pH 7.4, read-out: efflux ratio (ER))	Ki ([2]; mean±SEM of two experiments in duplicate, read-out: A1AR binding affinity Ki)	Ki ([1]; mean±SEM of two experiments in duplicate, read-out: H1R binding affinity Ki)
CCN(CCCCC(=O)Nc1nc2c(Br)cccc2s1)C1Cc2ccccc2C1 [Compound 22]	12 ± 3%	–	–	–	–	–	–
CCCN(CCCCC(=O)Nc1nc2c(OC)cccc2s1)C1Cc2ccccc2C1 [Compound 26]	–	22 ± 1%	3600 ± 2000 nM	–	–	–	–
CCCN(CCCCC(=O)Nc1nc2c(Br)cccc2s1)C1Cc2ccccc2C1 [Compound 27]	40 ± 1%	37 ± 4%	510 ± 240 nM	–	–	–	–
CCCN(CCCCC(=O)Nc1nc2c(OC)ccc(OC)c2s1)C1Cc2ccccc2C1 [Compound 30]	40 ± 3%	35 ± 1%	720 ± 250 nM	3.8 ×10⁻⁶ cm/s	8	> 10 µM	> 10 µM
